Data on 24 compounds can be found in patent US10251892B2, “Bicyclic heterocycles as FGFR4 inhibitors” (Incyte Corporation, priority 2015, dated 2019).

FGFR3 enzyme, sequence (P22607 23-806): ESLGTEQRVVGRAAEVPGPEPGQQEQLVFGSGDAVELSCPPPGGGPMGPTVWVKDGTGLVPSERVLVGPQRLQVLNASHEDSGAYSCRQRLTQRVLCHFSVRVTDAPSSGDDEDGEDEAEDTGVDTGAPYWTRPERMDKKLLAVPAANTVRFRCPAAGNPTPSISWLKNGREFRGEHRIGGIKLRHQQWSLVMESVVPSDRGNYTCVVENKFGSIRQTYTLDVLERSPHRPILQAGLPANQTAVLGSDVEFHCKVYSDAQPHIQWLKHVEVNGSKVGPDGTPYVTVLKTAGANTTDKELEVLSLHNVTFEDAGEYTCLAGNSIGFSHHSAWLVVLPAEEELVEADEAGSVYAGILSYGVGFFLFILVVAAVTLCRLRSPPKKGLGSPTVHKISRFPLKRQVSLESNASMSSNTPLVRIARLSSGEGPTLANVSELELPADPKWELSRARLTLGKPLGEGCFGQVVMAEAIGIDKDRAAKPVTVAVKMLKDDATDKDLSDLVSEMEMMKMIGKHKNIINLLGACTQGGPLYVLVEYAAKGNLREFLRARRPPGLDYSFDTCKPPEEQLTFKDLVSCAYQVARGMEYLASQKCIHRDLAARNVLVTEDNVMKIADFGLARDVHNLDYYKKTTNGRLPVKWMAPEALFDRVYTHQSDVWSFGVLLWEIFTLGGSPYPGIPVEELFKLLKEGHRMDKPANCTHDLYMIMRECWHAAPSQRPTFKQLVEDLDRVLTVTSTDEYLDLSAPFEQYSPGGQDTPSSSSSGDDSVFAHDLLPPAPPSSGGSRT

This assay deals with FGFR3 enzyme (Homo sapiens (Human), UniProt P22607). Briefly: FGFR Enzymatic Assay (peptide phosphorylation, FRET), FGFR3. Type of assay: biochemical. The note with it: IC50 ratio showing FGFR3 selectivity; pre-incubated for 4 hours. As to the method:
The inhibitor potency of the exemplified compounds was measured in an enzyme assay that measures peptide phosphorylation using FRET measurements to detect product formation. Inhibitors were serially diluted in DMSO and a volume of 0.5 μL was transferred to the wells of a 384-well plate.
GraphPad prism3 was used to analyze the data.
With `COc1cc(OC)c(F)c(N2Cc3cnc(-c4cn(C)nc4C)cc3N(c3ccc(S(C)(=O)=O)cc3)C2=O)c1F` [Example 98, 3-(2,6-difluoro-3,5-dimethoxyphenyl)-7-(1,3-dimethyl-1H-pyrazol-4-yl)-1-(4-(methylsulfonyl)phenyl)-3,4-dihydropyrido[4,3-d]pyrimidin-2(1H)-one], the FGFR1/FGFR3 is more than 5 and the FGFR4/FGFR3 is recorded as more than 10.

Turning to `COc1cc(OC)c(F)c(N2Cc3cnc(-c4cn(C)nc4C)cc3N(c3cccc(F)c3)C2=O)c1F` [Example 99, 3-(2,6-difluoro-3,5-dimethoxyphenyl)-7-(1,3-dimethyl-1H-pyrazol-4-yl)-1-(3-fluorophenyl)-3,4-dihydropyrido[4,3-d]pyrimidin-2(1H)-one], the FGFR1/FGFR3 is recorded as more than 5 and the FGFR4/FGFR3 is listed as more than 5.

Take `CCn1cc(CN2C(=O)N(c3c(F)c(OC)cc(OC)c3F)Cc3cnc(-c4cn(C)nc4C)cc32)cn1` [Example 39, 3-(2,6-difluoro-3,5-dimethoxyphenyl)-7-(1,3-dimethyl-1H-pyrazol-4-yl)-1-((1-ethyl-1H-pyrazol-4-yl)methyl)-3,4-dihydropyrido[4,3-d]pyrimidin-2(1H)-one]: the FGFR1/FGFR3 is listed as more than 10 and the FGFR4/FGFR3 is recorded as more than 10.

In the case of `COc1cccc(N2C(=O)N(c3c(F)c(OC)cc(OC)c3F)Cc3cnc(-c4cn(C)nc4C)cc32)c1` [Example 109, 3-(2,6-difluoro-3,5-dimethoxyphenyl)-7-(1,3-dimethyl-1H-pyrazol-4-yl)-1-(3-methoxyphenyl)-3,4-dihydropyrido[4,3-d]pyrimidin-2(1H)-one], the FGFR1/FGFR3 is more than 3 and the FGFR4/FGFR3 is reported as more than 10.

Take `CNC(=O)c1ccc(CN2C(=O)N(c3c(F)c(OC)cc(OC)c3F)Cc3cnc(-c4cn(C)nc4C)cc32)cc1` [Example 62, 4-((3-(2,6-difluoro-3,5-dimethoxyphenyl)-7-(1,3-dimethyl-1H-pyrazol-4-yl)-2-oxo-3,4-dihydropyrido[4,3-d]pyrimidin-1(2H)-yl)methyl)-N-methylbenzamide]: the FGFR1/FGFR3 is given as more than 10 and the FGFR4/FGFR3 is recorded as more than 5.

Take `COc1cc(OC)c(F)c(N2Cc3cnc(-c4cn(C)nc4C)cc3N(C(C)C)C2=O)c1F` [Example 90, 3-(2,6-difluoro-3,5-dimethoxyphenyl)-7-(1,3-dimethyl-1H-pyrazol-4-yl)-1-isopropyl-3,4-dihydropyrido[4,3-d]pyrimidin-2(1H)-one]: the FGFR1/FGFR3 is more than 5 and the FGFR4/FGFR3 was more than 5.

For `COc1cc(OC)c(F)c(N2Cc3cnc(-c4cn(C)nc4C)cc3N(c3ccc(F)c(C#N)c3)C2=O)c1F` [Example 66, 5-(3-(2,6-difluoro-3,5-dimethoxyphenyl)-7-(1,3-dimethyl-1H-pyrazol-4-yl)-2-oxo-3,4-dihydropyrido[4,3-d]pyrimidin-1(2H)-yl)-2-fluorobenzonitrile], the FGFR1/FGFR3 is recorded as more than 5 and the FGFR4/FGFR3 is more than 5.

`COc1cc(OC)c(F)c(N2Cc3cnc(-c4cn(C5CCN(CC#N)C5)nc4C)cc3C3(CC3)C2=O)c1F` (centres unmarked) [Example 154, 2-(3-(4-(2′-(2,6-difluoro-3,5-dimethoxyphenyl)-3′-oxo-2′,3′-dihydro-1′H-spiro[cyclopropane-1,4′-[2,7]naphthyridine]-6′-yl)-3-methyl-1H-pyrazol-1-yl)pyrrolidin-1-yl)acetonitrile]: the FGFR1/FGFR3 is reported as more than 5 and the FGFR4/FGFR3 is recorded as more than 3.

For `COc1cc(OC)c(F)c(N2Cc3cnc(-c4cn(C)nc4C)cc3N(c3ncccn3)C2=O)c1F` [Example 105, 3-(2,6-difluoro-3,5-dimethoxyphenyl)-7-(1,3-dimethyl-1H-pyrazol-4-yl)-1-(pyrimidin-2-yl)-3,4-dihydropyrido[4,3-d]pyrimidin-2(1H)-one], the FGFR1/FGFR3 was more than 3 and the FGFR4/FGFR3 is more than 5.

Consider `COc1cc(OC)c(F)c(N2Cc3cnc(-c4cn(C)nc4C)cc3N(Cc3cnn(C)c3C)C2=O)c1F` [Example 48, 3-(2,6-difluoro-3,5-dimethoxyphenyl)-7-(1,3-dimethyl-1H-pyrazol-4-yl)-1-[(1,5-dimethyl-1H-pyrazol-4-yl)methyl]-3,4-dihydropyrido[4,3-d]pyrimidin-2(1H)-one], for which the FGFR1/FGFR3 is more than 10 and the FGFR4/FGFR3 is reported as more than 10.

For the compound `COc1cc(OC)c(F)c(N2Cc3cnc(-c4cn(C)nc4C)cc3N(c3ccc(F)cc3)C2=O)c1F` [Example 40, 3-(2,6-difluoro-3,5-dimethoxyphenyl)-7-(1,3-dimethyl-1H-pyrazol-4-yl)-1-(4-fluorophenyl)-3,4-dihydropyrido[4,3-d]pyrimidin-2(1H)-one], the FGFR1/FGFR3 was more than 10 and the FGFR4/FGFR3 is listed as more than 10.

In the case of `COc1cc(OC)c(F)c(N2Cc3cnc(-c4cn(C)nc4C)cc3N(c3ccncn3)C2=O)c1F` [Example 45, 3-(2,6-difluoro-3,5-dimethoxyphenyl)-7-(1,3-dimethyl-1H-pyrazol-4-yl)-1-pyrimidin-4-yl-3,4-dihydropyrido[4,3-d]pyrimidin-2(1H)-one], the FGFR1/FGFR3 was more than 10 and the FGFR4/FGFR3 is reported as more than 10.

Consider `CCN1C(=O)N(c2c(F)c(OC)cc(OC)c2F)Cc2cnc(-c3cn(CCN4CCOCC4)nc3C)cc21` [Example 49, 3-(2,6-difluoro-3,5-dimethoxyphenyl)-1-ethyl-7-(3-methyl-1-(2-morpholinoethyl)-1H-pyrazol-4-yl)-3,4-dihydropyrido[4,3-d]pyrimidin-2(1H)-one], for which the FGFR1/FGFR3 is listed as more than 5 and the FGFR4/FGFR3 was more than 1.

With `COc1cc(OC)c(F)c(N2Cc3cnc(-c4cn(C)nc4C)cc3N(c3cnccn3)C2=O)c1F` [Example 70, 3-(2,6-difluoro-3,5-dimethoxyphenyl)-7-(1,3-dimethyl-1H-pyrazol-4-yl)-1-(pyrazin-2-yl)-3,4-dihydropyrido[4,3-d]pyrimidin-2(1H)-one], the FGFR1/FGFR3 is on record as more than 5 and the FGFR4/FGFR3 is given as more than 5.

Turning to `COc1cc(OC)c(F)c(N2Cc3cnc(-c4cn(C)nc4C)cc3N(c3cn[nH]c3)C2=O)c1F` [Example 129, 3-(2,6-difluoro-3,5-dimethoxyphenyl)-7-(1,3-dimethyl-1H-pyrazol-4-yl)-1-(1H-pyrazol-4-yl)-3,4-dihydropyrido[4,3-d]pyrimidin-2(1H)-one], the FGFR1/FGFR3 is on record as more than 5 and the FGFR4/FGFR3 is more than 10.

For the compound `COC(=O)Nc1ccc(N2C(=O)N(c3c(F)c(OC)cc(OC)c3F)Cc3cnc(-c4cn(C)nc4C)cc32)cc1` [Example 123, Methyl 4-(3-(2,6-difluoro-3,5-dimethoxyphenyl)-7-(1,3-dimethyl-1H-pyrazol-4-yl)-2-oxo-3,4-dihydropyrido[4,3-d]pyrimidin-1(2H)-yl)phenylcarbamate], the FGFR1/FGFR3 was more than 5 and the FGFR4/FGFR3 is on record as more than 3.

Turning to `COc1cc(OC)c(F)c(N2Cc3cnc(-c4cnn(CCN5CCC(OC)CC5)c4)cc3C3(CC3)C2=O)c1F` [Example 152, 2′-(2,6-difluoro-3,5-dimethoxyphenyl)-6′-(1-(2-(4-methoxypiperidin-1-yl)ethyl)-1H-pyrazol-4-yl)-1′H-spiro[cyclopropane-1,4′-[2,7]naphthyridin]-3′(2′H)-one], the FGFR1/FGFR3 was more than 5 and the FGFR4/FGFR3 is recorded as more than 3.

For `COc1cc(OC)c(F)c(N2Cc3cnc(-c4cn(C)nc4C)cc3C3(CC3)C2=O)c1F` [Example 21, 2′-(2,6-difluoro-3,5-dimethoxyphenyl)-6′-(1,3-dimethyl-1H-pyrazol-4-yl)-1′,2′-dihydro-3′H-spiro[cyclopropane-1,4′-[2,7]naphthyridin]-3′-one], the FGFR1/FGFR3 is more than 5.

Turning to `CCCN1C(=O)N(c2c(F)c(OC)cc(OC)c2F)Cc2cnc(-c3cn(C)nc3C)cc21` [Example 30, 3-(2,6-difluoro-3,5-dimethoxyphenyl)-7-(1,3-dimethyl-1H-pyrazol-4-yl)-1-propyl-3,4-dihydropyrido[4,3-d]pyrimidin-2(1H)-one], the FGFR1/FGFR3 was more than 1 and the FGFR4/FGFR3 is more than 5.

For `CCNC(=O)c1ccc(-c2cc3c(cn2)CN(c2c(F)c(OC)cc(OC)c2F)C(=O)N3CC)cn1` [Example 175, 5-(3-(2,6-difluoro-3,5-dimethoxyphenyl)-1-ethyl-2-oxo-1,2,3,4-tetrahydropyrido[4,3-d]pyrimidin-7-yl)-N-ethylpicolinamide], the FGFR1/FGFR3 is reported as more than 10 and the FGFR4/FGFR3 was more than 5.

With `COc1cc(OC)c(F)c(N2Cc3cnc(-c4cnn(C5(CC#N)CN(C(C)=O)C5)c4)cc3C3(CC3)C2=O)c1F` [Example 56, 2-(1-acetyl-3-(4-(2′-(2,6-difluoro-3,5-dimethoxyphenyl)-3′-oxo-2′,3′-dihydro-1′H-spiro[cyclopropane-1,4′-[2,7]naphthyridine]-6′-yl)-1H-pyrazol-1-yl)azetidin-3-yl)acetonitrile], the FGFR1/FGFR3 is listed as more than 5 and the FGFR4/FGFR3 is more than 1.

For the compound `COc1cc(OC)c(F)c(N2Cc3cnc(-c4cn(C5CCN(C)C5)nc4C)cc3C3(CC3)C2=O)c1F` (centres unmarked) [Example 163, 2′-(2,6-difluoro-3,5-dimethoxyphenyl)-6′-(3-methyl-1-(1-methylpyrrolidin-3-yl)-1H-pyrazol-4-yl)-1′H-spiro[cyclopropane-1,4′-[2,7]naphthyridin]-3′(2′H)-one], the FGFR1/FGFR3 is listed as more than 3 and the FGFR4/FGFR3 is listed as more than 3.

With `COc1cc(OC)c(F)c(N2Cc3cnc(-c4cn(CCN(C)C)nc4C)cc3C3(CC3)C2=O)c1F` [Example 164, 2′-(2,6-difluoro-3,5-dimethoxyphenyl)-6′-(1-(2-(dimethylamino)ethyl)-3-methyl-1H-pyrazol-4-yl)-1′H-spiro[cyclopropane-1,4′-[2,7]naphthyridin]-3′(2′H)-one], the FGFR1/FGFR3 was more than 3 and the FGFR4/FGFR3 is more than 3.

As to `CCN1C(=O)N(c2c(F)c(OC)cc(OC)c2F)Cc2cnc(-c3ccc(C4(C#N)CCC4)nc3)cc21` [Example 27, 1-(5-(3-(2,6-difluoro-3,5-dimethoxyphenyl)-1-ethyl-2-oxo-1,2,3,4-tetrahydropyrido[4,3-d]pyrimidin-7-yl)pyridin-2-yl)cyclobutanecarbonitrile], the FGFR1/FGFR3 is more than 10 and the FGFR4/FGFR3 is reported as more than 10.
